Experimental data reported in PMC13194042, “GABAA receptor agonists modulate intracellular Ca^2+ levels in activated human CD4^+ T cells” (Frontiers in Immunology, 2026).
Like-named read-outs stand apart in the source and are kept apart here.

How the values were obtained:
[1] = test system: human resting CD4+ T cells; experiment: Calcium imaging in resting CD4+ T cells; format: cell-based; conditions: GABA 500 nM; n = 47 cells
Method: Calcium imaging was performed as previously described ([12]). In brief, cells were loaded with 3 μM Fluo-8 AM calcium indicator (AAT Bioquest, Pleasanton, CA, USA) for 10 min at 37 °C and then seeded onto coverslips coated with 5% (3-aminopropyl)triethoxysilane (Sigma Aldrich) for 20 min at 37 °C. Calcium imaging was performed using a Zeiss LSM700 confocal microscope with a ×20 objective, capturing images at 0.5-s intervals. The recording solution was prepared by mixing two types of RPMI 1640 media, one containing 11 mM glucose (Gibco, Fisher Scientific, Sweden) and the other is glucose-free (Gibco, Fisher Scientific, Sweden). They were mixed in a 1:1 ratio, giving a final glucose concentration of 5.5 mM. The drugs were diluted in the recording solution and perfused into the chamber at specific concentrations using a peristaltic pump. After each drug application, the cells were perfused with the recording solution only to remove the drug. When the cells were again in the recording solution only, then the next test drug concentration was perfused into the chamber. […] The area around the individual cells was marked, and absolute fluorescence intensity values (F) were extracted using ZENBlue software. The relative intensity (F/Fmedian) for each cell was calculated for every recorded image and plotted against time. […]

[2] = molecular target: T1, GABAA receptors in activated human CD4+ T cells (Homo sapiens, UniProt P28476); conditions: ref [12], cited from earlier work
T1 sequence (P28476 21-465): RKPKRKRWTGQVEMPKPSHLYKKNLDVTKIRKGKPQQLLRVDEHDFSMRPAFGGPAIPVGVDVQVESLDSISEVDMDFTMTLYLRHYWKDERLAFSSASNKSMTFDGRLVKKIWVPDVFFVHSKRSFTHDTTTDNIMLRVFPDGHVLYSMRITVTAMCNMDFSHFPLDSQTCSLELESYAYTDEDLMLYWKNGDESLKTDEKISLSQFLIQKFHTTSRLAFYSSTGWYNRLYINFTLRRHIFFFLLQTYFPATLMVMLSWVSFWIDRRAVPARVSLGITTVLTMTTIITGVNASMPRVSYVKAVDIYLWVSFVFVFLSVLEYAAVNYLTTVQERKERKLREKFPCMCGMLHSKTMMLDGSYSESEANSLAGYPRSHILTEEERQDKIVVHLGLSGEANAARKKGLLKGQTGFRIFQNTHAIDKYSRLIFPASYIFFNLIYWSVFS

[3] = molecular target: T1, GABAA receptors in activated human CD4+ T cells; experiment: Calcium imaging: agonist-evoked intracellular Ca2+ response in activated CD4+ T cells; format: cell-based
Source text: Human blood samples and blood buffy coats were obtained from Uppsala University Hospital (Uppsala Akademiska sjukhuset), the protocol of which was approved by the Regional Research Ethics Committee in Uppsala (Dnr 2013/347). All individuals who donated blood were voluntarily recruited. Peripheral blood mononuclear cells (PBMCs) were isolated from blood samples using density-gradient centrifugation with Ficoll-Paque™ PLUS (Sigma Aldrich, Sweden). Subsequently, CD4^+ T lymphocytes were isolated from the PBMCs by negative selection, utilizing a human CD4^+ T lymphocyte isolation kit (Miltenyi Biotec, Germany) as per the manufacturer’s instructions. The freshly isolated CD4^+ T lymphocytes (1 million cells/mL) were suspended in human plasma-like medium (HPLM) (Gibco, Fisher Scientific, Sweden) containing 10% heat-inactivated dialyzed fetal bovine serum (Gibco, Fisher Scientific, Sweden), 100 μg/mL streptomycin, 100 U/mL penicillin (Gibco, Fisher Scientific, Sweden), and 5 μM β-mercaptoethanol (Gibco, Fisher Scientific, Sweden). The cells were activated in a 96-well plate (1 × 10^5–1.2 × 10^5 cells/well) with 3 μg/mL plate-bound anti-CD3 antibody (BD Biosciences, USA) for 72 h. Insulin (1 nM) was added at 48 h after the activation of the cells. The anti-CD3 concentration (5 μg/mL) used by Jacobs et al. ([14]) is similar to the one employed in this study. […] Akt-dependent signaling is activated by insulin at 48 h post-activation and is reminiscent of the anti-CD28-evoked signaling ([14]).
Calcium imaging was performed as previously described ([12]). In brief, cells were loaded with 3 μM Fluo-8 AM calcium indicator (AAT Bioquest, Pleasanton, CA, USA) for 10 min at 37 °C and then seeded onto coverslips coated with 5% (3-aminopropyl)triethoxysilane (Sigma Aldrich) for 20 min at 37 °C. Calcium imaging was performed using a Zeiss LSM700 confocal microscope with a ×20 objective, capturing images at 0.5-s intervals. The recording solution was prepared by mixing two types of RPMI 1640 media, one containing 11 mM glucose (Gibco, Fisher Scientific, Sweden) and the other is glucose-free (Gibco, Fisher Scientific, Sweden). They were mixed in a 1:1 ratio, giving a final glucose concentration of 5.5 mM. The drugs were diluted in the recording solution and perfused into the chamber at specific concentrations using a peristaltic pump. After each drug application, the cells were perfused with the recording solution only to remove the drug. When the cells were again in the recording solution only, then the next test drug concentration was perfused into the chamber. This was done so that the receptors/cells had always been in a drug-free solution before a drug application, thus avoiding potential cumulative drug effects such as run-down or desensitization. The area around the individual cells was marked, and absolute fluorescence intensity values (F) were extracted using ZENBlue software. The relative intensity (F/Fmedian) for each cell was calculated for every recorded image and plotted against time. The peak relative intensity during the drug application was considered the drug’s response. Data are presented for all cells as scatter plots and box and whisker plots.
Single-cell data presentation and agonist-Ca^2+-response data were fitted in GraphPad Prism 10 (GraphPad Software Inc., La Jolla, CA, USA). The data were fitted using nonlinear regression with a standard dose–response model:
(F/Fmedian)max=[agonist]/[agonist]+(EC50)agonist

KCa3.1 channels = molecular target: T2, KCa3.1 channels (Homo sapiens, UniProt O15554); experiment: Calcium imaging: block of GABA-activated Ca2+ signal by KCa3.1 blocker; format: cell-based; conditions: GABA 500 nM; TRAM-34 1 µM; average, n = 169 cells, N = 3 donors
T2 construct: endogenous in cells
T2 sequence (O15554 whole entry): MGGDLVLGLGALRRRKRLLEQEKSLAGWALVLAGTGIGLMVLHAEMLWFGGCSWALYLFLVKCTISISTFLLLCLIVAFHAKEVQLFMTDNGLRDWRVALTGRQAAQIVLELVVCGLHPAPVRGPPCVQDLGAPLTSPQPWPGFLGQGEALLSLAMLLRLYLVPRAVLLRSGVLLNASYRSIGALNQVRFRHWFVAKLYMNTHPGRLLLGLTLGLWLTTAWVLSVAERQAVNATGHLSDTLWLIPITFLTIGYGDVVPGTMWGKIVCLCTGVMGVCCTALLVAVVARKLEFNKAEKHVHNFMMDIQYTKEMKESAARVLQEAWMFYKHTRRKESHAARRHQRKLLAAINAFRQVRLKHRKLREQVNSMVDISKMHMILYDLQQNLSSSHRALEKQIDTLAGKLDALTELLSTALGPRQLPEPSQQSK
Source text: Peripheral blood mononuclear cells (PBMCs) were isolated from blood samples using density-gradient centrifugation with Ficoll-Paque™ PLUS (Sigma Aldrich, Sweden). Subsequently, CD4^+ T lymphocytes were isolated from the PBMCs by negative selection, utilizing a human CD4^+ T lymphocyte isolation kit (Miltenyi Biotec, Germany) as per the manufacturer’s instructions. The freshly isolated CD4^+ T lymphocytes (1 million cells/mL) were suspended in human plasma-like medium (HPLM) (Gibco, Fisher Scientific, Sweden) containing 10% heat-inactivated dialyzed fetal bovine serum (Gibco, Fisher Scientific, Sweden), 100 μg/mL streptomycin, 100 U/mL penicillin (Gibco, Fisher Scientific, Sweden), and 5 μM β-mercaptoethanol (Gibco, Fisher Scientific, Sweden). The cells were activated in a 96-well plate (1 × 10^5–1.2 × 10^5 cells/well) with 3 μg/mL plate-bound anti-CD3 antibody (BD Biosciences, USA) for 72 h. […]
In brief, cells were loaded with 3 μM Fluo-8 AM calcium indicator (AAT Bioquest, Pleasanton, CA, USA) for 10 min at 37 °C and then seeded onto coverslips coated with 5% (3-aminopropyl)triethoxysilane (Sigma Aldrich) for 20 min at 37 °C. […] The area around the individual cells was marked, and absolute fluorescence intensity values (F) were extracted using ZENBlue software. The relative intensity (F/Fmedian) for each cell was calculated for every recorded image and plotted against time. […]

CRAC channels = molecular target: T3, CRAC channels (Homo sapiens, UniProt Q96D31); experiment: Calcium imaging: block of GABA-mediated Ca2+ influx by CRAC channel inhibitor; format: cell-based; conditions: YM-58483 10 μM, acute application; n = 116 cells, N = 3 donors
T3 construct: endogenous in cells
T3 sequence (Q96D31 whole entry): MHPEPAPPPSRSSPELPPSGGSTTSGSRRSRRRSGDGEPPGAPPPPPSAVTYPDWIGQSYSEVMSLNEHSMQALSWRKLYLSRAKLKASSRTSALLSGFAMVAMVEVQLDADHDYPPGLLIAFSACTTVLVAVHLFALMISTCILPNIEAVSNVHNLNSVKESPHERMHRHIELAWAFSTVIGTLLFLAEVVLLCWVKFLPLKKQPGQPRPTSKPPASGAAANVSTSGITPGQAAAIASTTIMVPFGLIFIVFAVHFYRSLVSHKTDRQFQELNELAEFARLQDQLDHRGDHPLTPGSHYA
Source text: Human blood samples and blood buffy coats were obtained from Uppsala University Hospital (Uppsala Akademiska sjukhuset), the protocol of which was approved by the Regional Research Ethics Committee in Uppsala (Dnr 2013/347). All individuals who donated blood were voluntarily recruited. Peripheral blood mononuclear cells (PBMCs) were isolated from blood samples using density-gradient centrifugation with Ficoll-Paque™ PLUS (Sigma Aldrich, Sweden). Subsequently, CD4^+ T lymphocytes were isolated from the PBMCs by negative selection, utilizing a human CD4^+ T lymphocyte isolation kit (Miltenyi Biotec, Germany) as per the manufacturer’s instructions. The freshly isolated CD4^+ T lymphocytes (1 million cells/mL) were suspended in human plasma-like medium (HPLM) (Gibco, Fisher Scientific, Sweden) containing 10% heat-inactivated dialyzed fetal bovine serum (Gibco, Fisher Scientific, Sweden), 100 μg/mL streptomycin, 100 U/mL penicillin (Gibco, Fisher Scientific, Sweden), and 5 μM β-mercaptoethanol (Gibco, Fisher Scientific, Sweden). […]
Calcium imaging was performed as previously described ([12]). […] The area around the individual cells was marked, and absolute fluorescence intensity values (F) were extracted using ZENBlue software. The relative intensity (F/Fmedian) for each cell was calculated for every recorded image and plotted against time. […]

CRAC channel current = molecular target: T4, CRAC channel current (Homo sapiens, UniProt Q96D31); experiment: Whole-cell patch-clamp recording of CRAC-channel-mediated current; format: cell-based
T4 construct: endogenous in cells
T4 sequence (Q96D31 whole entry): as above
Source text: To study the effect of YM58483 and picrotoxin (PTX) on CRAC-channel-mediated currents, the electrophysiological patch-clamp recordings were done in the whole-cell configuration. The extracellular solution was composed of the following (in mM): 155 NaCl, 4.5 KCl, 2 CaCl2, 1 MgCl2, 5 HEPES, and 5.6 glucose (pH 7.4, adjusted with NaOH). The pipette solution consisted of the following (in mM): 140 Cs methanesulfonate, 10 NaCl, 3 MgCl2, 10 HEPES, and 10 EGTA (pH 7.3, with CsOH). We further examined the recovery of currents during repeated drug applications to evaluate the level of run-down and desensitization, if present. In these experiments, in order to keep the intracellular chloride concentration intact, gramicidin (2.6 μg/mL) was used to obtain the perforated configuration. The extracellular solution (in mM) contained the following: 157 NaCl, 4.5 KCl, 0.5 CaCl2, 1 MgCl2, 5 HEPES, and 5.6 glucose (pH 7.4, adjusted with NaOH), and the pipette solution consisted of the following (mM): 149 KCl, 2 CaCl2, 1 MgCl2, 1 NaCl, 10 HEPES, and 5.6 glucose (pH 7.3, adjusted with KOH). […] Recordings were performed with the help of an Axopatch 200B amplifier, filtered at 2 kHz, and digitized at 10 kHz with an analog-to-digital converter. For the recordings, the Clampex 10.5 (Molecular Devices, San Jose, CA, USA) program was used. […]

[4] = read-out: EC50, half-maximal activation concentration of the evoked Ca2+ signal; activated CD4+ T cells, 72 h post-activation, 1 nM insulin last 24 h, 5.5 mM glucose

NCCCC(=O)O [GABA, γ-Aminobutyric acid]
Ca2+ response in resting CD4+ T cells [1]: does not evoke a calcium response | EC50 ([2]; read-out: EC50 of the GABA-evoked Ca2+ signal): 0.005 nM

NC/C=C/C(=O)O [TACA, trans-4-aminocrotonic acid]
EC50 for the Ca2+-evoked signal relative to GABA (fold higher) ([3]; TACA vs GABA): approximately 500 fold | relative maximum Ca2+ signal (F/Fmedian) ([3]; in 500 nM TACA): 1.10 | EC50 [3, 4]: 2.2 nM

Oc1noc2c1CCNC2 [THIP, 4,5,6,7-tetrahydroisoxazolo(5,4-c)pyridin-3-ol]
relative maximum Ca2+ signal (F/Fmedian) ([3]; in 100 nM THIP): 1.20 | EC50 [3, 4]: 0.005 nM

Clc1ccccc1C(c1ccccc1)(c1ccccc1)n1cccn1 [TRAM-34]
inhibition of GABA-induced increase in intracellular Ca2+ levels (KCa3.1 channels): ~100%

Cc1nnsc1C(=O)Nc1ccc(-n2nc(C(F)(F)F)cc2C(F)(F)F)cc1 [YM58483]
effect on GABA (500 nM)-evoked increase in intracellular Ca2+ levels (CRAC channels): inhibited | reduction of the Ca2+ (CRAC channel) current (CRAC channel current; 10 μM YM58483, whole-cell, voltage ramps, current normalized to control): approximately 40%

O=C(O)C1=CCNCC1 [isoguvacine]
EC50 ([3]; activated CD4+ T cells, 72 h post-activation, 1 nM insulin last 24 h, 5.5 mM glucose; read-out: EC50, half-maximal activation concentration of the evoked Ca2+ signal): 54.4 nM | relative maximum Ca2+ signal (F/Fmedian) ([3]; in 10 μM isoguvacine): 1.13

NCc1cc(=O)[nH]o1 [muscimol]
relative maximum Ca2+ signal (F/Fmedian) ([3]; at 1 μM muscimol): approximately 1.17 | EC50 [3, 4]: 0.162 nM

Picrotoxin
effect on the Ca2+ (CRAC channel) current (CRAC channel current; whole-cell, current at -80 mV normalized to control, n = 3 cells, N = 2 donors): did not reduce the Ca^2+ current | effect on muscimol (500 nM)- or TACA (500 nM)-evoked Ca2+ signals [2]: blocked
